This note sets out measurements from ChEMBL document CHEMBL5291721, “A preclinical secondary pharmacology resource illuminates target-adverse drug reaction associations of marketed drugs” (Nat Commun, 2023).

The target of assay [1] is T1, Alpha-1A adrenergic receptor (Homo sapiens, UniProt P35348).
T1 sequence (P35348 whole entry): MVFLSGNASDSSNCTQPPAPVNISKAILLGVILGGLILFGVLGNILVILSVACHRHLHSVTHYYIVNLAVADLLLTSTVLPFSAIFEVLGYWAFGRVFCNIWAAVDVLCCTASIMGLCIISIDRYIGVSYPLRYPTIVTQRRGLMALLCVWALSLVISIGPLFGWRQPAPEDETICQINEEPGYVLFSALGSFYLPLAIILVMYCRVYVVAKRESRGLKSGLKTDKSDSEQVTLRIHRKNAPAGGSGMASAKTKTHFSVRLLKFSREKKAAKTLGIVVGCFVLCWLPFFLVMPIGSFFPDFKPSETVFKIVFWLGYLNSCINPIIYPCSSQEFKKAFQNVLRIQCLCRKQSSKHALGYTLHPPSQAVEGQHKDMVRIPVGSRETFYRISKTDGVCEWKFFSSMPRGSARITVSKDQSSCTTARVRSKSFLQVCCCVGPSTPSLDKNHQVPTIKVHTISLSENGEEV
The format is functional, cell-based.

Assay [2] concerns the target T2, 5-hydroxytryptamine receptor 2B (Homo sapiens, UniProt P41595). The format is functional, cell-based.
Assay [3] addresses T3, Alpha-2C adrenergic receptor (Homo sapiens, UniProt P18825).
T3 sequence (P18825 whole entry): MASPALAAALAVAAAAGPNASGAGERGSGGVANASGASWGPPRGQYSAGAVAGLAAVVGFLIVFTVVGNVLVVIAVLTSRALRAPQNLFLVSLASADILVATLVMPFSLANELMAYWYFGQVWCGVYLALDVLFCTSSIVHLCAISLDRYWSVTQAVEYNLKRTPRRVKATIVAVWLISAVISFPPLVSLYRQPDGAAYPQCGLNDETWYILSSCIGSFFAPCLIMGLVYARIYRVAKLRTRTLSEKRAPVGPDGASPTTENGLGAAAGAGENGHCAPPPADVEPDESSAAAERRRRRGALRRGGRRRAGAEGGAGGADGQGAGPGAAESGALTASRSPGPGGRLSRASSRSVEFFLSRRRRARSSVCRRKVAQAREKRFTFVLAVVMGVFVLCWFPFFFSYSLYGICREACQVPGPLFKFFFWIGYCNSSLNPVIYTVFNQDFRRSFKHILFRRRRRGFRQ
The format is functional.

Assay [4] has as its target T2, 5-hydroxytryptamine receptor 2B. The format is functional, cell-based. This is another data set of the same source.
Assay [5] shares this target. The format is functional, cell-based. This is another data set of the same source.
Note: assay procedure not described here.

T2 sequence (P41595 whole entry): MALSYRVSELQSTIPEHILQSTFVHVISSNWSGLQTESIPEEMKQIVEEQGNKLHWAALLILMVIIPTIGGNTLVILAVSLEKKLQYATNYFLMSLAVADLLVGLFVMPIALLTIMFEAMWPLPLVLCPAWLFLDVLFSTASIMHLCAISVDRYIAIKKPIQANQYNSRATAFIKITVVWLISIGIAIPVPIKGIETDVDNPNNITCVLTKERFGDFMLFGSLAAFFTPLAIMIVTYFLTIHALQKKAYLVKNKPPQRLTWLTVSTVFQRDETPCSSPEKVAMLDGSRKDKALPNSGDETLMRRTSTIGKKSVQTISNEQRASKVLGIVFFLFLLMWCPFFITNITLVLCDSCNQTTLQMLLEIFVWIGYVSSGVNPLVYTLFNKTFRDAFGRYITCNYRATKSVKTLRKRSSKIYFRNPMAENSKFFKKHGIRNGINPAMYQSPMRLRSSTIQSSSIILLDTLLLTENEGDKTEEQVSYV

Regarding `CCC1C(C)=NN=C(c2ccc(OC)c(OC)c2)c2cc(OC)c(OC)cc21` (centres undefined) [TOFISOPAM], the AC50 in assay [1] and in assay [2] was more than 30 µM in each case.

Consider `C[C@@H]1C[C@H]2[C@@H]3CCC4=CC(=O)C=C[C@]4(C)[C@@]3(F)[C@@H](O)C[C@]2(C)[C@H]1C(=O)CO` [DESOXIMETASONE], for which the AC50 in assay [1] and in assay [2] was more than 30 µM each time.

In the case of `COc1cc2c(cc1OC)[C@H]1C[C@@H](OC(=O)[C@@H](N)C(C)C)[C@H](CC(C)C)CN1CC2` [VALBENAZINE], the AC50 in assay [1] and in assay [2] was more than 30 µM throughout.

As to `C[C@@H]1C[C@H]2[C@@H]3C[C@H](F)C4=CC(=O)C=C[C@]4(C)[C@@]3(F)[C@@H](O)C[C@]2(C)[C@@]1(O)C(=O)COC(=O)C(C)(C)C` [FLUMETHASONE PIVALATE], the AC50 in assay [1] and in assay [2] was more than 30 µM each time.

As for `CS(=O)(=O)Nc1cc2occ(NC=O)c(=O)c2cc1Oc1ccccc1` [IGURATIMOD], the AC50 in assay [1], in assay [3], in assay [4], in assay [2] and in assay [5] was more than 30 µM in each case.

`C[C@@H]1O[C@@H](OC[C@H]2O[C@@H](Oc3c(-c4ccc(OCCO)c(OCCO)c4)oc4cc(OCCO)cc(O)c4c3=O)[C@H](O)[C@@H](O)[C@@H]2O)[C@H](O)[C@H](O)[C@H]1O` [TROXERUTIN]: the AC50 in assay [1] and in assay [2] was more than 30 µM throughout.

As to `COc1ccc(CCC(C)NCC(O)c2ccc(O)c([S+](C)[O-])c2)cc1` (centres undefined) [SULFINALOL], the AC50 in assay [1] and in assay [2] was more than 30 µM in each case.

As for `CCCC1C(=O)N2C(N(C)C)=Nc3ccc(C)cc3N2C1=O` (centres undefined) [APAZONE], the AC50 in assay [1] and in assay [2] was more than 30 µM each time.

For `NS(=O)(=O)c1cc2c(cc1Cl)NC(C1CC3C=CC1C3)NS2(=O)=O` (centres undefined) [CYCLOTHIAZIDE], the half-maximal activity concentration (AC50) in assay [1] and in assay [2] was more than 30 µM each time.

As to `Cc1nc(-c2ccc(OCC(C)C)c(C#N)c2)sc1C(=O)O` [FEBUXOSTAT], the AC50 in assay [1] and in assay [2] was more than 30 µM in each case.

In the case of `COc1ccc2c(c1)OC(C)(C)C(c1ccccc1)C2c1ccc(OCCN2CCCC2)cc1` (centres undefined) [ORMELOXIFENE], the AC50 (commonly the concentration giving half of the maximal activity seen) is 13.4 µM in assay [1] and more than 30 µM in assay [2].

Regarding `CCCC[N+]1(C)[C@@H]2C[C@@H](OC(=O)[C@H](CO)c3ccccc3)C[C@H]1[C@@H]1O[C@@H]12` (some centres undefined) [BUTYLSCOPOLAMINE], the AC50 in assay [1] and in assay [2] was more than 30 µM throughout.

For `CCO[C@@H](Cc1ccc(OCCn2c(C)ccc2-c2ccc(SC)cc2)cc1)C(=O)O` [SAROGLITAZAR], the AC50 is 15 µM in assay [1] and more than 30 µM in assay [2].

For the molecule `C1N2CN3CN1CN(C2)C3` [METHENAMINE], the AC50 in assay [1] and in assay [2] was more than 30 µM throughout.

`O=C(NC1CCN(CCCCC2(C(=O)NCC(F)(F)F)c3ccccc3-c3ccccc32)CC1)c1ccccc1-c1ccc(C(F)(F)F)cc1` [LOMITAPIDE]: the AC50 in assay [1] and in assay [2] was more than 30 µM throughout.

For `Nc1ccc(C(=O)O)cc1` [AMINOBENZOIC ACID], the AC50 in assay [1] and in assay [2] was more than 30 µM throughout.

Take `CCS(=O)(=O)N1CC(CC#N)(n2cc(-c3ncnc4[nH]ccc34)cn2)C1` [BARICITINIB]: the AC50 in assay [1] and in assay [2] was more than 30 µM each time.

Consider `O=C1CN=C(c2ccccc2)c2c(sc3c2CCCC3)N1` [BENTAZEPAM], for which the AC50 in assay [1] and in assay [2] was more than 30 µM throughout.

`CCOc1ccc(/C=C2\NCCc3cc(OCC)c(OCC)cc32)cc1OCC` [DROTAVERINE]: the AC50 in assay [1] and in assay [2] was more than 30 µM in each case.

As for `CCOC(=O)CC(SP(=S)(OC)OC)C(=O)OCC` (centres undefined) [MALATHION], the AC50 in assay [1] and in assay [2] was more than 30 µM each time.

Take `CCOC(=O)C(c1c(O)c2ccccc2oc1=O)c1c(O)c2ccccc2oc1=O` [ETHYL BISCOUMACETATE]: the AC50 in assay [1] and in assay [2] was more than 30 µM in each case.

Take `CC(C)Cc1ccc(C(C)C(=O)NO)cc1` (centres undefined) [IBUPROXAM]: the AC50 in assay [1] and in assay [2] was more than 30 µM each time.

For `CC[C@@H]1/C=C(\C)C[C@H](C)C[C@H](OC)[C@H]2O[C@@](O)(C(=O)C(=O)N3CCCC[C@H]3C(=O)O[C@H](/C(C)=C/[C@@H]3CC[C@H](Cl)[C@H](OC)C3)[C@H](C)[C@@H](O)CC1=O)[C@H](C)C[C@@H]2OC` [PIMECROLIMUS], the AC50 in assay [1] and in assay [2] was more than 30 µM in each case.

`CC(=O)O[C@]1(C(C)=O)CC[C@H]2[C@@H]3C[C@H](C)C4=CC(=O)CC[C@]4(C)[C@H]3CC[C@@]21C` [MEDROXYPROGESTERONE ACETATE]: the AC50 in assay [1] and in assay [2] was more than 30 µM throughout.

As to `CN(Cc1cc(Br)cc(Br)c1N)C1CCCCC1` [BROMHEXINE], the AC50 in assay [1] and in assay [2] was more than 30 µM in each case.

For the molecule `COc1cc(NCc2ccc3nc(N)nc(N)c3c2C)cc(OC)c1OC` [TRIMETREXATE], the AC50 in assay [1] and in assay [2] was more than 30 µM in each case.

For `O=C(c1ccc(F)c(F)c1Nc1ccc(I)cc1F)N1CC(O)([C@@H]2CCCCN2)C1` [COBIMETINIB], the AC50 in assay [1] and in assay [2] was more than 30 µM each time.

Turning to `CCN(CC)CCNc1ccc(C)c2sc3ccccc3c(=O)c12` [LUCANTHONE], the figures for the AC50 in assay [1] and in assay [2] were 17.9 µM and more than 30 µM, respectively.

`Oc1cccc2cccnc12` [OXYQUINOLINE]: the AC50 in assay [1] and in assay [2] was more than 30 µM in each case.

As for `Nc1nc2c(ncn2CCC(CO)CO)c(=O)[nH]1` [PENCICLOVIR], the AC50 in assay [1] and in assay [2] was more than 30 µM in each case.

In the case of `CC1=NN(c2ccccc2)C(=O)C1` [EDARAVONE], the AC50 in assay [1] and in assay [2] was more than 30 µM in each case.

For `O=C(O)c1cccc(-c2noc(-c3ccccc3F)n2)c1`, the AC50 in assay [1] is more than 30 µM; in assay [3], more than 10 µM; in assay [2], more than 30 µM.

For `COc1ccc(-c2cc(=O)c3c(O)cc(O[C@@H]4O[C@H](CO[C@@H]5O[C@@H](C)[C@H](O)[C@@H](O)[C@H]5O)[C@@H](O)[C@H](O)[C@H]4O)cc3o2)cc1O` [DIOSMIN], the AC50 in assay [1] and in assay [2] was more than 30 µM throughout.

Turning to `CO[C@@]12[C@H](COC(N)=O)C3=C(C(=O)C(C)=C(N)C3=O)N1C[C@@H]1N[C@@H]12` [MITOMYCIN], the AC50 in assay [1] and in assay [2] was more than 30 µM in each case.

As to `CCC1(c2cccc(O)c2)CCCCN(C)C1` (centres undefined) [MEPTAZINOL], the AC50 in assay [1] and in assay [2] was more than 30 µM throughout.
